Assay results from patent US20220133701A1, “METHODS OF TREATING PAIN” (Yeda Research and Development Co. Ltd., priority 2019, published 2022).

Key:
Assay type in all cases: in vivo, mouse
Kpna4/importin α3 mRNA = test: RT-qPCR of importin α3 (Kpna4) mRNA in DRG cultures after intrathecal AAV; details: DRG cultures from mice one month following intrathecal injection; vs shCtrl (FIG. 3F)
Experimental: Gene expression analysis by RT-qPCR: Total RNA from DRG neuronal cultures and DRG tissue from SNI mice were extracted using the Ambion RNAqueous-Micro total RNA isolation kit (Life Technologies Corp.). RNA purity, integrity (RIN>8) and concentration was determined, and 100-200 ng of total RNA was then used to synthesize cDNA using SuperScript III (Invitrogen). RT-qPCR was performed on a ViiA7 System (Applied Biosystems) using PerfeCTa SYBR Green (Quanta Biosciences, Gaithersburg, USA). Forward/Reverse primers were designed for different exons and the RNA was treated with […] to avoid false-positives. Amplicon specificity was verified by melting curve analysis. All RT-qPCR reactions were conducted in technical triplicates and the results were averaged for each sample, normalized to Actb levels and the relevant reporter genes such as GFP and for the viruses; and analyzed using the comparative ΔΔCt method [Livak & Schmittgen. Methods 25, 402 (2001)]. The following primers (Mus musculus) were used: […]

SNI mice = test: CatWalk gait analysis (footprint width) in SNI mice; details: AAV9 shRNA, 60 days post-injury, vs shCtrl (FIG. 4D)
Experimental: CatWalk gait analysis and training was carried out as previously described [Perry et al. Neuron 75, 294 (2012)]. Motivation was achieved by a combination of food restriction during the initial training and placing of palatable reward at runway ends. The test was repeated three times for each mouse. Data were collected and analyzed using the Catwalk Ethovision XT11 software (Noldus Information Technology, The Netherlands). The analyzed indices are reported for each animal as print area and print width.

mice [1] = test: Response to noxious heat (metal probe heated to 58° C. applied to paw, paw withdrawal latency)
Experimental: Pain Models—Responses to noxious heat were assessed by applying a metal probe heated to 58° C. to a forelimb paw, while holding the animal. Paw withdrawal latency was timed, typically ranging between 2-4 seconds in wild-type animals. If the paw was not withdrawn within 20 seconds the assay was terminated. The test was repeated three times for each animal, with at least 20 minute intervals between repeats. Heat sensitivity was also assessed using the hot plate test [L. Urien et al., Sci Rep 7, 43493 (2017)]. To this end, mice were placed individually in a 20 cm high Plexiglas box on a metal surface set at 52, 55 or 58° C., and the latency to initiate a nociceptive response (licking, hind paws shaking, jumping) was monitored by videotape. Mice were removed from the plate immediately after a nociceptive response.

importin α3 = test: Importin α3 immunostaining intensity in DRG sections and cultured DRG neurons (line scan / nuclear intensity)
Experimental: Histology—Lumbar sections of the spinal cord including Dorsal root ganglia (DRGs) were pre-fixed for 6 minutes before dissection of spinal cord and associated DRGs. Lumbar DRG (L4, unless otherwise indicated) and/or spinal cord were then fixed for six hours in 4% PFA in PBS, washed in PBS and equilibrated in 20% w/v sucrose in PBS prior to serial cryo-sectioning at a thickness of 10-20 μm. Following, one set for each DRG was processed for immunostaining. […]
Fluorescence Intensity Analysis: Line scan analysis of fluorescence intensity was carried out on high-resolution confocal z-stack from DRG sections to determine fluorescence intensity of c-FOS and importin α3 over cell regions of interest in-vivo. […] The integrated density was calculated as the sum of the values of the pixels in both cytoplasmic and nuclear regions of interest determined on the basis of TuJ-1, CGRP, TRPV1 or DAPI staining, respectively.

mice [2] = test: Rotarod; details: wild-type mice three weeks after intrathecal AAV9 shRNA (FIG. 5B)
Experimental: Rotarod experiments to assess integrity of balance and coordination [Crawley. Neuron 57, 809 (2008)] was carried out using a ROTOR-ROD™ system (83×91×61-SD Instruments, San Diego). Mice were subjected to three trials with 20 minutes inter-trial intervals over three consecutive days, at three weeks and five weeks after AAV9 injection, calculating the daily average each time. Rotarod acceleration was set to 20 rpm in 240 seconds. Latency to fall (sec) was recorded and the average of the three or six consecutive trials was used as an index of motor coordination and balance.

mice [3] = test: Open field; details: wild-type mice three weeks after intrathecal AAV9 shRNA (FIG. 5A)
Experimental: Motility and anxiety-like behaviors were assayed in the open field (OF) as previously described^8. Mouse activity was tracked and recorded using VideoMot2 (TSE System, Germany). OF was performed under 120 1× for the assessment of anxiety-related behaviors. The OF raw data were further analyzed with COLORcation [Dagan et al. J Neurosci Methods 270, 9 (2016)].

[4] = listed as anti-importin α3 shRNAs

## shα3: AAV9 expressing an importin α3 targeting shRNA (SEQ ID NO: 8), intrathecal injection (DNA GATCCGGCTTTGACAAACATTGCATGAAGCTTGATGCAATGTTTGTCAAAGCCTTTTTT)
Kpna4/importin α3 mRNA
  impα3 mRNA (RT-qPCR, log 2 fold-change normalized to GFP): significant downregulation of impα3 mRNA
SNI mice
  footprint width / paw morphology and gait parameters, Catwalk: significant recovery by 60 days
SNI mice; listed as anti-importin α3 shRNA
  footprint width / paw morphology and gait parameters, Catwalk: regained unaltered paw morphology and gait parameters
Mice [1]; importin α3 knockout (−/−) mice after intrathecal AAV9 construct
  response to noxious heat: No further alteration of the noxious heat response
Mice [1]; importin α3 knockout (−/−) mice after intrathecal AAV9 construct, listed as anti-importin α3 shRNAs
  response to noxious heat: no further effect on responses to noxious heat
Mice [1]; wild type mice after intrathecal injection of AAV9 construct, vs control construct
  response to noxious heat: reduced response of WT mice to noxious heat
Mice [1]; wild type mice after intrathecal injection of AAV9 construct, vs control construct, listed as anti-importin α3 shRNAs
  response to noxious heat: delayed paw withdrawal latency to noxious heat
Importin α3; cultures of treated animals vs shCtrl (FIGS. 3G-H)
  impα3 nuclear intensity in cultured DRG neurons: significant reduction in nuclear levels
Importin α3; wild type mice one month following intrathecal injection, vs shCtrl (FIG. 3E)
  impα3 signal, line scan intensity in DRG sections: reduction of impα3 signal
Mice [2]
  rotarod (motor coordination): No deficits were observed in either test
Mice [2]; [4]
  rotarod (motor coordination): no effect
Mice [3]
  open field (exploratory behaviour): No deficits were observed in either test
Mice [3]; [4]
  open field (exploratory behaviour): no effect
